Here are results for 2 molecules from patent publication US11440911B2, “Salts and crystals” (INTRA-CELLULAR THERAPIES, INC., priority 2017, dated 2022).

Data set [1] is described as follows: solubility of free base in organic solvents. It is filed as physicochemical. The conditions noted are these: variety of organic solvents.
A further data set concerns the target H1 histaminergic (Homo sapiens, UniProt P35367). The conditions noted are these: cited from earlier work.
Another data set has as its target T1, 5-HT2C (Homo sapiens, UniProt P28335).
T1 sequence (P28335 33-458): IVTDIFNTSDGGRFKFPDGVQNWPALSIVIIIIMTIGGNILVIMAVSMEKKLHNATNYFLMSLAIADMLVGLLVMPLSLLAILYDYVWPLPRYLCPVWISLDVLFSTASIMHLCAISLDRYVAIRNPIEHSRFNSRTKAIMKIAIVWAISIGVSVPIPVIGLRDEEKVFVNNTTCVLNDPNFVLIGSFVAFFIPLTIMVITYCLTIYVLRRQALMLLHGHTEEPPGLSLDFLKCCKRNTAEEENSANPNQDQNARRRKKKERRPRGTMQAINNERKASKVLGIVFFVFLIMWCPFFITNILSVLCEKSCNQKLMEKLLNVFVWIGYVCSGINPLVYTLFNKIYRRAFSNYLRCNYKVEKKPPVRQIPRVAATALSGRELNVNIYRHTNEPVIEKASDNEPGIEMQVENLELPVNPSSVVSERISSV
The settings on record: cited from earlier work.

For the next data set, the system named is muscarinic. The settings on record: cited from earlier work.
For data set [2] the following is noted: free base form; cited from earlier work.
For data set [3] the following is noted: salt form of U.S. Pat. No. 7,183,282, precipitated from diethyl ether; cited from earlier work.

H1 histaminergic, sequence (P35367 whole entry): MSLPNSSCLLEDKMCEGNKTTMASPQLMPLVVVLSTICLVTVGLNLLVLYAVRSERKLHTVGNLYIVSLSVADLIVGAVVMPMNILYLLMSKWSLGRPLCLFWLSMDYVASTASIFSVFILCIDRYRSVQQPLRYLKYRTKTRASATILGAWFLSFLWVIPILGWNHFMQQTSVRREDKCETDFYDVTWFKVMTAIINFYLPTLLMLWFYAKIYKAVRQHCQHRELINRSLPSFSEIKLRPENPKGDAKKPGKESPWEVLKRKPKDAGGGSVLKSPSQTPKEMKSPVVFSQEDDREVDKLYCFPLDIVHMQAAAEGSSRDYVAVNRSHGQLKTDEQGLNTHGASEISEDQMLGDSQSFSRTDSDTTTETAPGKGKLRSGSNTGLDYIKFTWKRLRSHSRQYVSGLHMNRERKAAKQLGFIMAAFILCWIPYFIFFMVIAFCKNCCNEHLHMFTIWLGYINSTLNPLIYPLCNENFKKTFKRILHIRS

For `CN1CCN2c3c(cccc31)[C@@H]1CN(CCCC(=O)c3ccc(F)cc3)CC[C@@H]12` [ITI-007, 1-(4-fluoro-phenyl)-4-((6bR,10aS)-3-methyl-2,3,6b,9,10,10a-hexahydro-1H,7H-pyrido[3′,4′:4,5]pyrrolo[1,2,3-de]quinoxalin-8-yl)-butan-1-one], in data set [1], the “solubility in organic solvents” value is “good solubility”. Moreover, the binding to receptor entry at H1 histaminergic, on 5-HT2C and with muscarinic was “negligible binding” in each case. Further, the aqueous solubility entry in data set [2] is recorded as “poor aqueous solubility”.

Turning to `CN1CCN2c3c(cccc31)C1CN(CCCC(=O)c3ccc(F)cc3)CCC12.Cl` (stereo not shown) [hydrochloride salt form of ITI-007], in data set [3], the hygroscopicity result is “hygroscopic” and the stability result is listed as “poor stability”.
